Data reported in publication PMC11274643, “Design, Synthesis, Characterization, and Cytotoxicity of New Pyrazolylmethylene-2-thioxoimidazolidin-4-one Derivatives towards Androgen-Sensitive LNCaP Prostate Cancer Cells” (Biomolecules, 2024).

How the values were obtained:
[1] = system: AR+LNCaP androgen-sensitive human prostate cancer cell line; experiment: MTT in vitro cytotoxicity assay, 24 h incubation; format: cell-based; conditions: for IC50: Homo sapiens, MTT; for Selective Index Wi38/Lncap: ratio of IC50 values
Method: (§1) The antitumor properties of pyrazolylmethylene-2-thioxoimidazolidin-4-one derivatives (3a–p) against androgen-sensitive (AR^+LNCaP; ATCC CRL-1740, Accession: CVCL_0395) and androgen-insensitive (AR^-PC-3; ATCC CRL-1435, Accession: CVCL_D5ZS) human prostate cancer cell lines in addition to normal human lung fibroblast cell line (Wi38, Accession: CVCL_2759) were evaluated by MTT assay. AR^+LNCaP, AR^-PC-3, and Wi38 cell lines were purchased frozen in liquid nitrogen from Egyptian Company for Production of Vaccines, Sera and Drugs, Cairo, Egypt (VACSERA). Tumor cell lines were stored as monolayer cultures in DMEM supplemented with 10% FBS and 1% penicillin–streptomycin. MTT assay was carried out as described previously in the literature. In brief, AR^+LNCaP, AR^-PC-3, and Wi38 cells were cultured into 96-well plates containing 100 µL of culture medium per each well. […] A control containing only culture medium was also applied. The assay was performed in triplicate. The cells were incubated overnight to grow at 37 °C in 5% CO2. After removing the growth medium, 100 µL of MTT (0.4 mg/mL of PBS) were added. After 24 h of incubation, the supernatant was removed and 100 µL of DMSO (Sigma Aldrich, Germany) were then added to each sample. Absorbance at 550 nm was measured. The formula (Reading of extract/Reading of negative control) × 100 was applied to calculate the viability percentage. The IC50 value of test compounds (3a–p) was also determined using CPE measurements of normal Wi38 cells (normal human lung fibroblast cells). The MTT assay was repeated with the test compounds (3i, 3k, 3o, 3j, 3p, and 3m) using the three cell types which were stimulated by 1 nM DHT after 48 h of incubation. IC50 values were estimated using Graph Pad Prism computer software (International Scientific Community, San Diego, CA, USA) from linear regression analysis of the concentration–response curves plotted for each tested compound [36].
(§2) In vitro cytotoxicity assay was performed to elucidate the antitumor properties of the synthesized derivatives of pyrazolylmethylene-2-thioxoimidazolidin-4-one. […] The cytotoxicity assay was performed using MTT assay as described in the Materials and Methods Section 2.4.1. The test compounds were dissolved in DMSO as stock solutions (<0.5% (v/v)) and stored in the dark at −20 °C. The human prostate cancer cells and normal human lung fibroblast cells were subjected to variable doses of the compounds for 24 h.

[2] = system: AR-PC-3 androgen-insensitive human prostate cancer cell line; experiment: MTT in vitro cytotoxicity assay, 24 h incubation; format: cell-based; conditions: for IC50: Homo sapiens, MTT; for Selective Index Wi38/PC-3: ratio of IC50 values
Method: as §1, §2

[3] = system: Wi38 normal human lung fibroblast cell line; experiment: MTT in vitro cytotoxicity assay, 24 h incubation; format: cell-based; conditions: WI-38
Method: as §1, §2

[4] = system: AR+LNCaP androgen-sensitive human prostate cancer cell line; experiment: MTT cytotoxicity assay in presence of 1 nM DHT, 48 h incubation; format: cell-based; conditions: for IC50: Homo sapiens; for Selectivity AR-/AR+: IC50 PC-3 / IC50 LNCaP
Method: as §1
(§3) The assay was performed in the presence of dihydrotestosterone (1 nM DHT) for 48 h of incubation as previously described. DHT is a potent inducer of androgens that enhances prostate cancer disease progression.

[5] = system: AR-PC-3 androgen-insensitive human prostate cancer cell line; experiment: as above; format: cell-based
Method: as §1, §3

[6] = system: Wi38 normal human lung fibroblast cell line; experiment: as above; format: cell-based; conditions: WI-38, read-out: IC50 Wi38
Method: as §1, §3

[7] = system: active human caspase-3 in AR+LNCaP cells; experiment: Detection of active Caspase 3 in AR+LNCaP cell lysates (Invitrogen Elisa kit); format: cell-based; design: Caspase 3 Conc. (Average): unit not given here; conditions: for active Caspase 3 fold change compared to untreated cells / induction of active caspase 3 as a percentage of the reference drug Enzalutamide: IC50 concentration; for active Caspase 3 fold change compared to untreated cells: 1 nM DHT, AR+LNCaP lysate; for induction of active caspase 3 as a percentage of the reference drug Enzalutamide: AR+LNCaP; for Caspase 3 fld / Caspase 3: LNCaP, supplement lab report; for Caspase 3 fld: fold of control; for Caspase 3 Conc. (Average): supplement ELISA read-out, average of two wells
Method: Untreated AR^+LNCaP and Enzalutamide-treated AR^+LNCaP were used as negative and positive controls, respectively. AR^+LNCaP cells were cultured in 96-well plates at a cell density of 1 × 10^4 cells/well. Cells were then lysed with 50 µL lysis buffer/well supplemented with the Invitrogen Elisa kit for detection of active human caspase-3 (Invitrogen, Camarillo, CA, USA). Plates were frozen at −80 °C for 30 min and then thawed. The lysate was mixed with 2 Z-DEVD-R110 substrate and incubated at room temperature for 30 min. A fluorescence microplate reader (Tecan, Mainz-Kastel, Germany), was used to measure fluorescence via excitation at 496 nm and emission detection at 520 nm. Values were normalized with total protein content. Active caspase 3 accumulation was determined based on standard dilution series of Human Caspase-3 samples provided with the kit. […]

AR+LNCaP cells [8] = experiment: DNA content at cell cycle stages (Propidium Iodide flow cytometry); format: cell-based, human; conditions: IC50 concentration, 1 nM DHT
Method: The amount of DNA contents of AR^+LNCaP cells stimulated with 1 nM DHT and treated with representative test compounds 3i and 3k at the different stages of the cell cycle were quantitatively evaluated as described previously. […] The Ab139418–Propidium Iodide Flow Cytometry Kit for Cell Cycle Analysis (ab139418, Abcam, Cambridge, UK) was employed for this assay following the procedures provided by the supplier.
Firstly, the ab139418-Propidium Iodide Flow Cytometry Kit for Cell Cycle Analysis (Bio vision, Boston, MA, USA) was used to quantify DNA contents at each cell cycle stage as an indicator of the cell cycle growth arrest.

AR+LNCaP cells [9] = experiment: Cell apoptosis assay (Annexin V-FITC, flow cytometry); format: cell-based, human; conditions: IC50 concentration, 1 nM DHT, 24 h
Method: Cell apoptosis assay was performed to ensure the efficacy of compounds 3i and 3k against the progression of AR^+LNCaP tumor cell growth in the presence of 1 nM DHT. Untreated AR^+LNCaP and Enzalutamide-treated AR^+LNCaP were used in this assay as negative and positive controls, respectively. AR^+LNCaP cells were precultured in 25 cm^2 flasks. Briefly, 1 nM DHT was then added to the growing cells. […] AR^+LNCaP cells were harvested and fixed with 70% (v/v) ethanol in FBS (Sigma-Aldrich, Germany), then maintained at 4 °C overnight. The cells were resuspended in FBS containing 0.1% (v/v) Triton X-100, 40 µg/mL […], and 0.1 mg/mL RNase then incubated in a dark chamber at 37 °C for 30 min. A flow-cytometer (Becton Dickinson, San Jose, CA, USA) supplemented with an argon ion laser at a wavelength of 488 nm was used to analyze the AR^+LNCaP cell apoptotic stages. Based on the protocol described by Ozgur et al. (2003), analysis of the data was implemented using Multicycle Software (Phoenix Flow Systems, San Diego, CA, USA; http://www.phoenixflow.com/index.html).
The active compounds 3i and 3k were further analyzed to evaluate their antitumor properties against the growth of the AR^+LNCaP prostate cancer cell line. […] Untreated AR^+LNCaP cells and Enzalutamide reference drug were also used as negative and positive controls in this assay, respectively.

SMILES	IC50 [1]	Selective Index Wi38/Lncap [1]	IC50 [2]	Selective Index Wi38/PC-3 [2]	IC50 [3]	IC50 [4]	Selectivity AR-/AR+ [4]	IC50 [5]	CC50 [6]	active Caspase 3 fold change compared to untreated cells [7]	induction of active caspase 3 as a percentage of the reference drug Enzalutamide [7]	Caspase 3 fld [7]	Caspase 3 [7]	Caspase 3 Conc. (Average) [7]	DNA Content (%) G0–G1 (AR+LNCaP cells [8])	DNA Content (%) G2/M (AR+LNCaP cells [8])	DNA Content (%) S (AR+LNCaP cells [8])	Early Apoptosis (%) (AR+LNCaP cells [9])	Late Apoptosis (%) (AR+LNCaP cells [9])	melting point	other results
O=C1NC(=S)NC1=Cc1cn(-c2ccc(F)cc2)nc1-c1ccc(Cl)cc1 [Compound 3i, 5-((3-(4-Chlorophenyl)-1-(4-fluorophenyl)-1H-pyrazol-4-yl)methylene)-2-thioxoimidazolidin-4-one]	12.07 ± 0.09 µM	2.5	19.5 ± 0.21 µM	1.5	29.93 ± 0.12 µM	6.08 ± 0.04 µM	2.6	15.52 ± 0.12 µM	21.93 ± 0.14 µM	4.7 fold	71.4%	4.667	358.9 pg/mL	358.9	58.33%	22.48%	19.19%	11.47%	7.55%	168 to 170 °C	Necrotic Cells (%) (AR+LNCaP cells [9]): 2.77%; Total Apoptosis (%) (AR+LNCaP cells [9]): 21.79%
O=C1NC(=S)NC1=Cc1cn(-c2ccc(F)cc2)nc1-c1ccc(C(F)(F)F)cc1 [Compound 3k, 5-((1-(4-Fluorophenyl)-3-(4-(trifluoromethyl)phenyl)-1H-pyrazol-4-yl)methylene)-2-thioxoimidazolidin-4-one]	10.3 ± 0.14 µM	3.2	22.5 ± 0.29 µM	1.5	32.81 ± 0.08 µM	5.22 ± 0.12 µM	2.7	13.9 ± 0.18 µM	19.81 ± 0.07 µM	5.4 fold	81.2%	5.304	407.9 pg/mL	407.9	65.21%	19.18%	15.61%	12.11%	16.89%	210 to 212 °C	Necrotic Cells (%) (AR+LNCaP cells [9]): 6.02%; Total Apoptosis (%) (AR+LNCaP cells [9]): 35.02%
Cc1ccc(-c2nn(-c3ccc(F)cc3)cc2C=C2NC(=S)NC2=O)cc1 [Compound 3m, 5-((1-(4-Fluorophenyl)-3-(p-tolyl)-1H-pyrazol-4-yl)methylene)-2-thioxoimidazolidin-4-one]	12.97 ± 0.06 µM	2.4	22.5 ± 0.46 µM	1.3	30.54 ± 0.08 µM	10.5 ± 0.11 µM	1.3	13.1 ± 0.14 µM	23.33 ± 0.19 µM	3.2 fold	48.6%	3.176	244.3 pg/mL	244.3	–	–	–	–	–	167 to 169 °C	–
O=C1NC(=S)NC1=Cc1cn(-c2ccc(C(F)(F)F)cc2)nc1-c1ccc(F)cc1 [Compound 3o, 5-((3-(4-Fluorophenyl)-1-(4-(trifluoromethyl)phenyl)-1H-pyrazol-4-yl)methylene)-2-thioxoimidazolidin-4-one]	12.66 ± 0.11 µM	2.0	21.08 ± 0.1 µM	1.2	25.08 ± 0.08 µM	11.75 ± 0.07 µM	1.4	16.4 ± 0.17 µM	22.35 ± 0.13 µM	3.5 fold	53.4%	3.490	268.4 pg/mL	268.4	–	–	–	–	–	205 to 207 °C	–
O=C1NC(=S)NC1=Cc1cn(-c2ccc(C(F)(F)F)cc2)nc1-c1ccc(C(F)(F)F)cc1 [Compound 3p, 5-((1,3-Bis(4-(trifluoromethyl)phenyl)-1H-pyrazol-4-yl)methylene)-2-thioxoimidazolidin-4-one]	12.11 ± 0.08 µM	2.1	23.2 ± 0.12 µM	1.0	25.35 ± 0.12 µM	5.91 ± 0.13 µM	2.7	15.2 ± 0.25 µM	20.18 ± 0.14 µM	4.4 fold	66.6%	4.351	334.6 pg/mL	334.6	–	–	–	–	–	223 to 225 °C	–
